Data published in ChEMBL document CHEMBL1201862, “PubChem BioAssay data set” (2004).
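All cell lines were grown in 96-well plates and treated with compound for 48 hours. Here, GI50 denotes the concentration required for 50% inhibition of growth.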 Activity calls are given as the source filed them. Cut-off read from the data, not from the text of the source: active = GI50 up to about 1.1 µM and inactive = higher.

Experiments:
Experiment in all cases: NCI tumour cell line growth inhibition, 48 h
OVCAR-8 = tested on: OVCAR-8
UACC-62 = tested on: UACC-62
SK-MEL-5 = tested on: SK-MEL-5
MOLT-4 = tested on: MOLT-4
KM-20L2 = tested on: KM-20L2
Malme-3M = tested on: Malme-3M
SR = tested on: SR
HOP-92 = tested on: HOP-92
HCT-15 = tested on: HCT-15
CAKI-1 = tested on: CAKI-1
OVCAR-4 = tested on: OVCAR-4
UO-31 = tested on: UO-31
KM12 = tested on: KM12
OVCAR-3 = tested on: OVCAR-3
NCI-H460 = tested on: NCI-H460
NCI-H226 = tested on: NCI-H226
SF-268 = tested on: SF-268
ACHN = tested on: ACHN
IGROV-1 = tested on: IGROV-1
HCC 2998 = tested on: HCC 2998
SK-MEL-28 = tested on: SK-MEL-28
SF-295 = tested on: SF-295
LOX IMVI = tested on: LOX IMVI
CCRF-CEM = tested on: CCRF-CEM
SF-539 = tested on: SF-539
RPMI-8226 = tested on: RPMI-8226
A549 = tested on: A549
HOP-18 = tested on: HOP-18
786-0 = tested on: 786-0
SNB-19 = tested on: SNB-19
NCI-H23 = tested on: NCI-H23
U-251 = tested on: U-251
DU-145 = tested on: DU-145
HT-29 = tested on: HT-29
NCI-H522 = tested on: NCI-H522
SNB-75 = tested on: SNB-75
K562 = tested on: K562
MDA-MB-435 = tested on: MDA-MB-435
M14 = tested on: M14
DMS-114 = tested on: DMS-114
SW-620 = tested on: SW-620
DMS-273 = tested on: DMS-273
DLD-1 = tested on: DLD-1
M19-MEL = tested on: M19-MEL
MDA-MB-231 = tested on: MDA-MB-231
COLO 205 = tested on: COLO 205
HCT-116 = tested on: HCT-116
Hs-578T = tested on: Hs-578T
SNB-78 = tested on: SNB-78
UACC-257 = tested on: UACC-257
SN12C = tested on: SN12C
PC-3 = tested on: PC-3
XF498 = tested on: XF498
EKVX = tested on: EKVX
NCI/ADR-RES = tested on: NCI/ADR-RES
HOP-62 = tested on: HOP-62
RXF 393 = tested on: RXF 393
MDA-N = tested on: MDA-N
LXFL 529 = tested on: LXFL 529
MCF7 = tested on: MCF7
HL-60 = tested on: HL-60
OVCAR-5 = tested on: OVCAR-5
SK-OV-3 = tested on: SK-OV-3
A498 = tested on: A498
SK-MEL-2 = tested on: SK-MEL-2
BT-549 = tested on: BT-549
TK-10 = tested on: TK-10
T47D = tested on: T47D

With `COC(=O)[C@@H]1c2cc3c(c(O)c2[C@@H](OC2OC(C)C(OC)C(C)(OC)C2OC)C[C@]1(C)O)C(=O)c1c(O)cc2c(c1C3=O)O[C@H]1O[C@]2(C)[C@H](O)[C@@H](N(C)C)[C@@H]1O` (stereo partly drawn) the GI50 (OVCAR-8) was 0.00508 µM (active), the GI50 (UACC-62) was 0.00386 µM (active) and the GI50 (SK-MEL-5) was 0.00849 µM (active). For the same molecule, the GI50 (MOLT-4) was 0.0146 µM (active), the GI50 (KM-20L2) was 0.00745 µM (active) and the GI50 (Malme-3M) was 0.00453 µM (active). For the same molecule, the GI50 (SR) was 0.00294 µM (active), the GI50 (HOP-92) was 0.00532 µM (active) and the GI50 (HCT-15) was 0.247 µM. For the same molecule, the GI50 (CAKI-1) was 0.0419 µM (active), the GI50 (OVCAR-4) was 0.0191 µM (active) and the GI50 (UO-31) was 0.301 µM (active). For the same molecule, the GI50 (KM12) was 0.0065 µM (active), the GI50 (OVCAR-3) was 0.0351 µM (active) and the GI50 (NCI-H460) was 0.00377 µM (active). For the same molecule, the GI50 (NCI-H226) was 0.00427 µM (active), the GI50 (SF-268) was 0.00585 µM (active) and the GI50 (ACHN) was 0.069 µM (active). For the same molecule, the GI50 (IGROV-1) was 0.0101 µM (active), the GI50 (HCC 2998) was 0.00433 µM (active) and the GI50 (SK-MEL-28) was 0.00556 µM (active). For the same molecule, the GI50 (SF-295) was 0.0154 µM (active), the GI50 (LOX IMVI) was 0.00254 µM (active) and the GI50 (CCRF-CEM) was 0.0114 µM (active). For the same molecule, the GI50 (SF-539) was 0.0246 µM (active), the GI50 (RPMI-8226) was 0.00243 µM (active) and the GI50 (A549) was 0.0156 µM (active). For the same molecule, the GI50 (HOP-18) was 0.00323 µM (active), the GI50 (786-0) was 0.00635 µM (active) and the GI50 (SNB-19) was 0.00502 µM (active). The GI50 (NCI-H23) was 0.00581 µM (active), the GI50 (U-251) was 0.00766 µM (active) and the GI50 (DU-145) was 0.0859 µM (active). For the same molecule, the GI50 (HT-29) was 0.00815 µM (active), the GI50 (NCI-H522) was 0.0138 µM (active) and the GI50 (SNB-75) was 0.00608 µM (active). For the same molecule, the GI50 (K562) was 0.0155 µM (active), the GI50 (MDA-MB-435) was 0.0612 µM (active) and the GI50 (M14) was 0.0317 µM (active). For the same molecule, the GI50 (DMS-114) was 0.00107 µM (active), the GI50 (SW-620) was 0.00456 µM (active) and the GI50 (DMS-273) was 0.01 µM (active). For the same molecule, the GI50 (DLD-1) was 0.00146 µM (active), the GI50 (M19-MEL) was 0.000973 µM (active) and the GI50 (MDA-MB-231) was 0.0288 µM (active). For the same molecule, the GI50 (COLO 205) was 0.00629 µM (active), the GI50 (HCT-116) was 0.00189 µM (active) and the GI50 (Hs-578T) was 0.0203 µM (active). For the same molecule, the GI50 (SNB-78) was 0.00306 µM (active), the GI50 (UACC-257) was 0.0143 µM (active) and the GI50 (SN12C) was < 0.0232 µM (active). The GI50 (PC-3) was 0.0468 µM (active), the GI50 (XF498) was 0.00177 µM (active) and the GI50 (EKVX) was 0.0266 µM (active). The GI50 (NCI/ADR-RES) was 0.299 µM (active), the GI50 (HOP-62) was 0.0359 µM (active) and the GI50 (RXF 393) was 0.0132 µM (active). For the same molecule, the GI50 (MDA-N) was 0.0471 µM (active), the GI50 (LXFL 529) was 0.000391 µM (active) and the GI50 (MCF7) was 0.033 µM (active). For the same molecule, the GI50 (HL-60) was 0.0148 µM (active), the GI50 (OVCAR-5) was 0.0815 µM (active) and the GI50 (SK-OV-3) was 0.0426 µM (active). For the same molecule, the GI50 (A498) was 0.000507 µM (active), the GI50 (SK-MEL-2) was 0.00337 µM (active) and the GI50 (BT-549) was 0.0197 µM (active). The GI50 (TK-10) was 0.0297 µM (active) and the GI50 (T47D) was 0.0276 µM (active).
